According to ChEMBL document CHEMBL1156832, “Cationic N-confused porphyrin derivative as a better molecule scaffold for G-quadruplex recognition” (Bioorg Med Chem, 2010):
Activity calls are given as the source filed them. The calls are words filed in the database; no cut-off is given here.

Assays:
[1] = tested on: Nucleic Acid; assay: Binding affinity to human telomeric G-quadruplex sequence by surface plasmon resonance spectroscopy; assay type: nucleic-acid assay
[2] = tested on: Nucleic Acid; assay: Selectivity for human telomeric G-quadruplex sequence over double stranded DNA by surface plasmon resonance spectroscopy; assay type: nucleic-acid assay
[3] = tested on: Nucleic Acid; assay: Binding affinity to dsDNA by surface plasmon resonance spectroscopy; assay type: nucleic-acid assay
[4] = tested on: Nucleic Acid; assay: Selectivity for human bcl2 promoter G-quadruplex sequence over double stranded DNA by surface plasmon resonance spectroscopy; assay type: nucleic-acid assay
[5] = tested on: Nucleic Acid; assay: Induction of G-quadruplex stabilization in G4C oligonucleotide assessed as change in DNA melting temperature at [compound/G4C ratio = 1] in pH 7.4 10 mM Tris-HCl, 1 mM EDTA buffer by CD spectroscopy; assay type: nucleic-acid assay
[6] = tested on: Nucleic Acid; assay: Induction of G-quadruplex stabilization in G4C oligonucleotide assessed as change in DNA melting temperature at [compound/G4C ratio = 2] in pH 7.4 10 mM Tris-HCl, 1 mM EDTA buffer by CD spectroscopy; assay type: nucleic-acid assay
[7] = tested on: Nucleic Acid; assay: Induction of G-quadruplex stabilization in G4C oligonucleotide assessed as change in DNA melting temperature at [compound/G4C ratio = 4] in pH 7.4 10 mM Tris-HCl, 1 mM EDTA buffer by CD spectroscopy; assay type: nucleic-acid assay
[8] = tested on: Nucleic Acid; assay: Binding affinity to human c-myc promoter G-quadruplex sequence by surface plasmon resonance spectroscopy; assay type: nucleic-acid assay
[9] = tested on: Nucleic Acid; assay: Selectivity for human c-myc promoter G-quadruplex sequence over double stranded DNA by surface plasmon resonance spectroscopy; assay type: nucleic-acid assay
[10] = tested on: Nucleic Acid; assay: Induction of G-quadruplex stabilization in G4C oligonucleotide assessed as change in DNA melting temperature at [compound/G4C ratio = 5] in pH 7.4 10 mM Tris-HCl, 1 mM EDTA buffer by CD spectroscopy; assay type: nucleic-acid assay
[11] = tested on: Nucleic Acid; assay: Induction of G-quadruplex stabilization in G4C oligonucleotide assessed as change in DNA melting temperature at [compound/G4C ratio = 3] in pH 7.4 10 mM Tris-HCl, 1 mM EDTA buffer by CD spectroscopy; assay type: nucleic-acid assay
[12] = tested on: Nucleic Acid; assay: Binding affinity to human bcl2 promoter G-quadruplex sequence by surface plasmon resonance spectroscopy; assay type: nucleic-acid assay
[13] = tested on: Nucleic Acid; assay: Induction of G-quadruplex stabilization in HT4 oligonucleotide assessed as inhibition of DNA synthesis by Taq DNA polymerase stop assay
[14] = tested on: Nucleic Acid; assay: Induction of structural transition from antiparallel to the mixed-type hybrid G-quadruplex structure in human telomeric sequence (T2AG3)4 by CD spectroscopy; assay type: nucleic-acid assay
[15] = tested on: Nucleic Acid; assay: Binding affinity to F21T G-quadruplex DNA at 2.5 uM in presence of competitor dsDNA by competitive FRET melting assay; assay type: nucleic-acid assay
[16] = tested on: Nucleic Acid; assay: Induction of G-quadruplex stabilization in G4C oligonucleotide in pH 7.4 10 mM Tris-HCl, 1 mM EDTA buffer by CD spectroscopy; assay type: nucleic-acid assay

KA [1] | Selectivity ratio [2] | KA [3] | Selectivity ratio [4] | ΔTm [5] [°C] | ΔTm [6] [°C] | ΔTm [7] [°C] | KA [8] | Selectivity ratio [9] | ΔTm [10] [°C] | ΔTm [11] [°C] | KA [12] [×10⁷ /M] | Activity [13] | Activity [14] | Activity [15] | Activity [16] | Structure (SMILES)
5.32 ×10⁶ /M | 40 | 1.32 ×10⁵ /M | 108 | 3.8 | 6.6 | 9.2 | 7.54 ×10⁶ /M | 57 | 9.3 | 8.3 | 1.42 | Dose-dependent effect | Active | Active | – | C1=C/C2=C(\c3ccc(C[n+]4ccccc4)cc3)c3c[nH]c(c3)/C(c3ccc(C[n+]4ccccc4)cc3)=C3/C=CC(=N3)/C(c3ccc(C[n+]4ccccc4)cc3)=c3/cc/c([nH]3)=C(\c3ccc(C[n+]4ccccc4)cc3)C1=N2
2.37 ×10⁷ /M | 34 | 6.85 ×10⁵ /M | 25 | 2.2 | 3.3 | 6.5 | 5.82 ×10⁷ /M | 85 | 7.6 | 5 | 1.74 | – | – | – | Active | C1=Cc2nc1c(-c1ccc(C[n+]3ccccc3)cc1)c1nc(c(-c3ccc(C[n+]4ccccc4)cc3)c3ccc([nH]3)c(-c3ccc(C[n+]4ccccc4)cc3)c3ccc([nH]3)c2-c2ccc(C[n+]3ccccc3)cc2)C=C1

Structure (SMILES) | KA [1] | Selectivity ratio [2] | KA [3] | Selectivity ratio [4] | ΔTm [5] [°C] | ΔTm [6] [°C] | ΔTm [7] [°C] | KA [8] | Selectivity ratio [9] | ΔTm [10] [°C] | ΔTm [11] [°C] | KA [12] [×10⁷ /M] | Activity [13] | Activity [14] | Activity [15] | Activity [16]
C[n+]1ccc(-c2c3nc(c(-c4cc[n+](C)cc4)c4ccc([nH]4)c(-c4cc[n+](C)cc4)c4ccc([nH]4)c(-c4cc[n+](C)cc4)c4nc2C=C4)C=C3)cc1 | 4.65 ×10⁷ /M | 13 | 3.62 ×10⁶ /M | 9 | 4.2 | 7.5 | 11.2 | 1.01 ×10⁸ /M | 28 | 10 | 9.6 | 3.09 | – | – | – | –
